Measurements published in ChEMBL document CHEMBL1201862, “PubChem BioAssay data set” (2004).
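Interpolation was linear, between the two tested concentrations surrounding the appropriate level; five concentrations were tested over 48 hours in 96-well plates. GI50: concentration for 50% inhibition of growth.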 Activity calls are given as the source filed them. Rule as the data show it: active = GI50 up to about 1.1 µM and inactive = higher.

How the values were obtained:
Assay in all cases: NCI-60 cell line screen, 48 h
SF-295 = test system: SF-295
SK-MEL-5 = test system: SK-MEL-5
MCF7 = test system: MCF7
MDA-N = test system: MDA-N
786-0 = test system: 786-0
OVCAR-3 = test system: OVCAR-3
UACC-62 = test system: UACC-62
U-251 = test system: U-251
HOP-92 = test system: HOP-92
SK-OV-3 = test system: SK-OV-3
HT-29 = test system: HT-29
MDA-MB-231 = test system: MDA-MB-231
BT-549 = test system: BT-549
HCC 2998 = test system: HCC 2998
SF-268 = test system: SF-268
HOP-62 = test system: HOP-62
CCRF-CEM = test system: CCRF-CEM
COLO 205 = test system: COLO 205
RXF 393 = test system: RXF 393
TK-10 = test system: TK-10
SW-620 = test system: SW-620
A549 = test system: A549
OVCAR-8 = test system: OVCAR-8
UO-31 = test system: UO-31
DU-145 = test system: DU-145
T47D = test system: T47D
OVCAR-4 = test system: OVCAR-4
IGROV-1 = test system: IGROV-1
NCI-H460 = test system: NCI-H460
NCI-H23 = test system: NCI-H23
PC-3 = test system: PC-3
SN12C = test system: SN12C
NCI-H226 = test system: NCI-H226
SNB-75 = test system: SNB-75
HCT-15 = test system: HCT-15
OVCAR-5 = test system: OVCAR-5
EKVX = test system: EKVX
LOX IMVI = test system: LOX IMVI
UACC-257 = test system: UACC-257
MDA-MB-435 = test system: MDA-MB-435
NCI-H522 = test system: NCI-H522
CAKI-1 = test system: CAKI-1
HCT-116 = test system: HCT-116
M14 = test system: M14
SNB-19 = test system: SNB-19
Malme-3M = test system: Malme-3M
K562 = test system: K562
NCI/ADR-RES = test system: NCI/ADR-RES
RPMI-8226 = test system: RPMI-8226
Hs-578T = test system: Hs-578T
SK-MEL-28 = test system: SK-MEL-28
A498 = test system: A498
SR = test system: SR
ACHN = test system: ACHN
MOLT-4 = test system: MOLT-4
SF-539 = test system: SF-539
HL-60 = test system: HL-60
KM12 = test system: KM12
SK-MEL-2 = test system: SK-MEL-2

With `COC1(OC)C[C@H](C)[C@@]23O[C@]24c2cc(O)c5c(c2N[C@H]3C#C/C=C\C#C[C@]14O)C(=O)c1ccccc1C5=O` the GI50 (SF-295) was 5 nM (active), the GI50 (SK-MEL-5) was 5 nM (active) and the GI50 (MCF7) was 5 nM (active). For the same compound, the GI50 (MDA-N) was 5.97 nM (active), the GI50 (786-0) was 5 nM (active) and the GI50 (OVCAR-3) was 43.1 nM (active). The GI50 (UACC-62) was 5 nM (active), the GI50 (U-251) was 5 nM (active) and the GI50 (HOP-92) was 1.07 nM (active). The GI50 (SK-OV-3) was < 1 nM (active), the GI50 (HT-29) was 6.55 nM (active) and the GI50 (MDA-MB-231) was 14.2 nM (active). For the same compound, the GI50 (BT-549) was 5.19 nM (active), the GI50 (HCC 2998) was 8.05 nM (active) and the GI50 (SF-268) was 5 nM (active). For the same compound, the GI50 (HOP-62) was 5 nM (active), the GI50 (CCRF-CEM) was < 1 nM (active) and the GI50 (COLO 205) was 5 nM (active). For the same compound, the GI50 (RXF 393) was 5 nM (active), the GI50 (TK-10) was 24.5 nM (active) and the GI50 (SW-620) was 5 nM (active). The GI50 (A549) was 5 nM (active), the GI50 (OVCAR-8) was 5 nM (active) and the GI50 (UO-31) was 5 nM (active). For the same compound, the GI50 (DU-145) was 5 nM (active), the GI50 (T47D) was 5 nM (active) and the GI50 (OVCAR-4) was 96.4 nM (active). For the same compound, the GI50 (IGROV-1) was 14.8 nM (active), the GI50 (NCI-H460) was < 1 nM (active) and the GI50 (NCI-H23) was 5 nM (active). The GI50 (PC-3) was 5 nM (active), the GI50 (SN12C) was 1.36 nM (active) and the GI50 (NCI-H226) was 5 nM (active). The GI50 (SNB-75) was 5 nM (active), the GI50 (HCT-15) was 5 nM and the GI50 (OVCAR-5) was 6.92 nM (active). For the same compound, the GI50 (EKVX) was 28.6 nM (active), the GI50 (LOX IMVI) was 5 nM (active) and the GI50 (UACC-257) was 5 nM (active). The GI50 (MDA-MB-435) was 7.03 nM (active), the GI50 (NCI-H522) was 6.35 nM (active) and the GI50 (CAKI-1) was 5 nM (active). For the same compound, the GI50 (HCT-116) was 5 nM (active), the GI50 (M14) was 5 nM (active) and the GI50 (SNB-19) was 5 nM (active). For the same compound, the GI50 (Malme-3M) was 5 nM (active), the GI50 (K562) was 5 nM (active) and the GI50 (NCI/ADR-RES) was 5 nM (active). For the same compound, the GI50 (RPMI-8226) was 5 nM (active), the GI50 (Hs-578T) was 70.5 nM (active) and the GI50 (SK-MEL-28) was 7.75 nM (active). The GI50 (A498) was 1.19 nM (active).

For `CCOC(=O)CC(=O)Nc1cccc2nc[nH]c12`, the GI50 (SF-295) was > 100000 nM (inactive), the GI50 (SK-MEL-5) was > 100000 nM (inactive) and the GI50 (MCF7) was > 100000 nM (inactive). The GI50 (MDA-N) was > 100000 nM (inactive), the GI50 (SR) was > 100000 nM (inactive) and the GI50 (786-0) was > 100000 nM (inactive). The GI50 (OVCAR-3) was > 100000 nM (inactive), the GI50 (UACC-62) was > 100000 nM (inactive) and the GI50 (U-251) was > 100000 nM (inactive). For the same compound, the GI50 (HOP-92) was > 100000 nM (inactive), the GI50 (SK-OV-3) was > 100000 nM (inactive) and the GI50 (HT-29) was > 100000 nM (inactive). The GI50 (MDA-MB-231) was > 100000 nM (inactive), the GI50 (BT-549) was > 100000 nM (inactive) and the GI50 (SF-268) was 98200 nM (inactive). For the same compound, the GI50 (HOP-62) was > 100000 nM (inactive), the GI50 (ACHN) was > 100000 nM (inactive) and the GI50 (CCRF-CEM) was > 100000 nM (inactive). The GI50 (COLO 205) was > 100000 nM (inactive), the GI50 (MOLT-4) was > 100000 nM (inactive) and the GI50 (RXF 393) was > 100000 nM (inactive). The GI50 (SW-620) was > 100000 nM (inactive), the GI50 (A549) was > 100000 nM (inactive) and the GI50 (OVCAR-8) was > 100000 nM (inactive). For the same compound, the GI50 (SF-539) was > 100000 nM (inactive), the GI50 (UO-31) was > 100000 nM (inactive) and the GI50 (DU-145) was > 100000 nM (inactive). The GI50 (T47D) was > 100000 nM (inactive), the GI50 (OVCAR-4) was > 100000 nM (inactive) and the GI50 (IGROV-1) was > 100000 nM (inactive). The GI50 (NCI-H460) was > 100000 nM (inactive), the GI50 (NCI-H23) was > 100000 nM (inactive) and the GI50 (PC-3) was > 100000 nM (inactive). For the same compound, the GI50 (SN12C) was > 100000 nM (inactive), the GI50 (NCI-H226) was > 100000 nM (inactive) and the GI50 (SNB-75) was 294 nM (active). For the same compound, the GI50 (HCT-15) was over 100000 nM, the GI50 (OVCAR-5) was > 100000 nM (inactive) and the GI50 (EKVX) was > 100000 nM (inactive). The GI50 (UACC-257) was > 100000 nM (inactive), the GI50 (MDA-MB-435) was > 100000 nM (inactive) and the GI50 (HL-60) was > 100000 nM (inactive). For the same compound, the GI50 (CAKI-1) was > 100000 nM (inactive), the GI50 (HCT-116) was > 100000 nM (inactive) and the GI50 (M14) was > 100000 nM (inactive). For the same compound, the GI50 (SNB-19) was > 100000 nM (inactive), the GI50 (Malme-3M) was > 100000 nM (inactive) and the GI50 (K562) was > 100000 nM (inactive). For the same compound, the GI50 (NCI/ADR-RES) was > 100000 nM (inactive), the GI50 (RPMI-8226) was > 100000 nM (inactive) and the GI50 (KM12) was 51800 nM (inactive). The GI50 (Hs-578T) was 267 nM (active), the GI50 (SK-MEL-2) was > 100000 nM (inactive) and the GI50 (SK-MEL-28) was > 100000 nM (inactive). For the same compound, the GI50 (A498) was > 100000 nM (inactive).
